# According to patent publication US7195893B2, “Nucleic acids encoding α2δ calcium channel subunits and methods for making and using them” (Neuromed Pharmaceuticals Ltd., priority 2003, dated 2007):
# Counter-ions that a name gives are not always drawn.
# Columns and labels:
# [1] = target: α2δ-2 (Homo sapiens, UniProt Q9NY47); details: Marais et al. 2001; cited from earlier work
# [2] = target: T1, rat α1B+β1b+chicken α2δ Ca2+ channel (Rattus norvegicus, UniProt Q02294); assay: whole-cell patch clamp screening for calcium channel blockers; type: cell-based; details: 600 nM, HEK cells, n=3, FIG. 4
# T1 construct: expressed in transfected cells; host or cells: HEK 293
# Procedure: After an incubation period of 24 to 72 hrs, the culture medium was removed and replaced with an external recording solution containing (in mM) 5 BaCl, 129 CsCl, 1 MgCl2, 10 HEPES, 10 glucose, pH 7.4 with CsOH. Whole-cell patch clamp recordings were made with an Axopatch 200B amplifier (Axon Instruments, USA). Recording electrodes with typical resistances of 4–8 MΩ were backfilled with (in mM) 108 caesium-methansulfonate, 2 MgCl2, 10 HEPES, 11 EGTA, 2 ATP, pH 7.2 with CsOH. To create command potentials and acquire data, Clampex 8.2 software (Axon Instruments, USA) and a Digidata 1322A A/D converter interface (Axon Instrument, USA) were used. Currents were elicited at test potential of +20 mV (50 ms duration) from a holding potential of −80 mV. Leak and capacitance currents were subtracted on-line with a standard P/4 protocol. Evoked currents were filtered by a low-pass Bessel filter set at 1 kHz. Signals were acquired at 2.02 kHz and analyzed offline using pClamp 8.2 (Axon Instruments, USA) and Origin (OriginLab Corporation, USA) software. The effects of co-expressing the α2δ subunit of Example 1 with the rat α1B+β1b calcium channel subunits were tested by comparing average current density (Ipeak/cell capacitance) with and without α2δ.
# To screen for calcium channel blockers, the whole-cell patch clamp recording technique used was as described in Example 2. […]
# [3] = system: rat α1B+β1b Ca2+ channel; assay: whole-cell patch clamp, average current density with and without α2δ in transfected HEK 293 cells; type: cell-based; details: HEK 293, 6 cells, test potential +20 mV, holding −80 mV, mean±S.E.M.
# Procedure: Human embryonic kidney cells, HEK 293 (ATCC# CRL 1573) were grown in standard DMEM medium supplemented with 2 mM glutamine and 10% fetal bovine serum and transfected by a standard calcium-phosphate-DNA co-precipitation method or by lipofection with the full-length chicken α2δ-1 calcium channel cDNA in the mammalian expression vector pBK-RSV (see Current protocols in Molecular Biology): alone or in combination with expression vectors encoding α1 and β subunits, and with vectors expressing green fluorescent protein (GFP).
# After an incubation period of 24 to 72 hrs, the culture medium was removed and replaced with an external recording solution containing (in mM) 5 BaCl, 129 CsCl, 1 MgCl2, 10 HEPES, 10 glucose, pH 7.4 with CsOH. Whole-cell patch clamp recordings were made with an Axopatch 200B amplifier (Axon Instruments, USA). Recording electrodes with typical resistances of 4–8 MΩ were backfilled with (in mM) 108 caesium-methansulfonate, 2 MgCl2, 10 HEPES, 11 EGTA, 2 ATP, pH 7.2 with CsOH. To create command potentials and acquire data, Clampex 8.2 software (Axon Instruments, USA) and a Digidata 1322A A/D converter interface (Axon Instrument, USA) were used. […] Signals were acquired at 2.02 kHz and analyzed offline using pClamp 8.2 (Axon Instruments, USA) and Origin (OriginLab Corporation, USA) software. […]
# T1 sequence (Q02294 whole entry): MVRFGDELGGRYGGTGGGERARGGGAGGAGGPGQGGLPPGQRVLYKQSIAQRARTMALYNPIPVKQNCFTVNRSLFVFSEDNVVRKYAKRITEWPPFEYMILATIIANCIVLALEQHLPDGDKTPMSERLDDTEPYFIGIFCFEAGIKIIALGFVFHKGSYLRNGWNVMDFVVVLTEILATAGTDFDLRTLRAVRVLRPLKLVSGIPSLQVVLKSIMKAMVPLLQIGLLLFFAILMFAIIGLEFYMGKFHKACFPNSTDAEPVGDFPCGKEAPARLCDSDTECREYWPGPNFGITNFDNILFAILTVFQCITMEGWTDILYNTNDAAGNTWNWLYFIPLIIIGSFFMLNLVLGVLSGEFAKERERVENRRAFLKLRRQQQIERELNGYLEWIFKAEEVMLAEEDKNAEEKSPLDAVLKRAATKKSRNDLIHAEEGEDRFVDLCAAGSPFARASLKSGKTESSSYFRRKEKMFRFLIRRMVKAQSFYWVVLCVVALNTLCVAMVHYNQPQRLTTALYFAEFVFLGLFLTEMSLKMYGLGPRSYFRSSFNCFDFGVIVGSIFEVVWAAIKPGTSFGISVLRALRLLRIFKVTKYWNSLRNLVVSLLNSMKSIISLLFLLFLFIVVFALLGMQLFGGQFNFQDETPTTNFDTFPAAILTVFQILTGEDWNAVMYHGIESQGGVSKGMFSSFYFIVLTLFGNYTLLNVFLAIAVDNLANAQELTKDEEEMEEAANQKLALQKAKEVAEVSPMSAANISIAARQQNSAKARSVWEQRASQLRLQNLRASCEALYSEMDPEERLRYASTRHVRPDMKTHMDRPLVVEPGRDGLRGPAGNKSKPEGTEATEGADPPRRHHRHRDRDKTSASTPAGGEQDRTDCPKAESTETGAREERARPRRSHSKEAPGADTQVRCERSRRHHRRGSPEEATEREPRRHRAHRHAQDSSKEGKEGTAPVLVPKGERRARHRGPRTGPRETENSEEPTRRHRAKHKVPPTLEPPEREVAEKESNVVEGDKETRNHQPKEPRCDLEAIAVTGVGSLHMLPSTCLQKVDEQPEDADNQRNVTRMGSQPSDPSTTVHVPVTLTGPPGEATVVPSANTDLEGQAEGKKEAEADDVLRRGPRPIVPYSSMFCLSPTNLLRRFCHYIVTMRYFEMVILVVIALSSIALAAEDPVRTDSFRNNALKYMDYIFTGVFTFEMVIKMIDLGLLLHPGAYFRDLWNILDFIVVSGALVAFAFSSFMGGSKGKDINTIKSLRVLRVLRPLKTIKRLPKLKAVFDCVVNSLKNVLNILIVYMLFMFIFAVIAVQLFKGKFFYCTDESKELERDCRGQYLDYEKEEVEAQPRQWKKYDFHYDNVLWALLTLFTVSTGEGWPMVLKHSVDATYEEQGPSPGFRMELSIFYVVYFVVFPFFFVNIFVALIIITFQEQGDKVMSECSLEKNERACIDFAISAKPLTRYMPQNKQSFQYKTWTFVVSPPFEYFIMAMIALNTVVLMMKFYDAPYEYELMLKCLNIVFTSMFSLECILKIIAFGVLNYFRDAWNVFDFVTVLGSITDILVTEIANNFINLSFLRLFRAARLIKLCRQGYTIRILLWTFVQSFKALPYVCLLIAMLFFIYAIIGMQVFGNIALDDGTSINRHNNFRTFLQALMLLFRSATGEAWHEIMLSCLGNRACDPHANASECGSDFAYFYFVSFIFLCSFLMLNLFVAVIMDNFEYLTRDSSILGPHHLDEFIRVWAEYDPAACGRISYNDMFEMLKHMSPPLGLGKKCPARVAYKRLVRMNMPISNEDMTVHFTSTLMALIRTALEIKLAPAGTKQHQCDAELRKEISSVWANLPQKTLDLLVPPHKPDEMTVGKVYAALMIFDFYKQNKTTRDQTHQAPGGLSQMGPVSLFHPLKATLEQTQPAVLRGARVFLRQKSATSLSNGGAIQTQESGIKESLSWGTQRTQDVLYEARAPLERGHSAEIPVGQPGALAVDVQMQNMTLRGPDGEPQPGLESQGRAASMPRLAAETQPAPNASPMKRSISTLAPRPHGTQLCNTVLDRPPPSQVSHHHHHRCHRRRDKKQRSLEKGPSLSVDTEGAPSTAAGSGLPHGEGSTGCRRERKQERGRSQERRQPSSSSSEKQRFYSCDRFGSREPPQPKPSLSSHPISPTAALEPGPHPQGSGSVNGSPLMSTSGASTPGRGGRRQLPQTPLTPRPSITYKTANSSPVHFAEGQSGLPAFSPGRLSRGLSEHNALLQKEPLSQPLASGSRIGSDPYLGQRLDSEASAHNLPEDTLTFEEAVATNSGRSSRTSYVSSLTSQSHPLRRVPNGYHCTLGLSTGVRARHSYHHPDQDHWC
# Chain of α2δ-2 (Q9NY47 19-1150): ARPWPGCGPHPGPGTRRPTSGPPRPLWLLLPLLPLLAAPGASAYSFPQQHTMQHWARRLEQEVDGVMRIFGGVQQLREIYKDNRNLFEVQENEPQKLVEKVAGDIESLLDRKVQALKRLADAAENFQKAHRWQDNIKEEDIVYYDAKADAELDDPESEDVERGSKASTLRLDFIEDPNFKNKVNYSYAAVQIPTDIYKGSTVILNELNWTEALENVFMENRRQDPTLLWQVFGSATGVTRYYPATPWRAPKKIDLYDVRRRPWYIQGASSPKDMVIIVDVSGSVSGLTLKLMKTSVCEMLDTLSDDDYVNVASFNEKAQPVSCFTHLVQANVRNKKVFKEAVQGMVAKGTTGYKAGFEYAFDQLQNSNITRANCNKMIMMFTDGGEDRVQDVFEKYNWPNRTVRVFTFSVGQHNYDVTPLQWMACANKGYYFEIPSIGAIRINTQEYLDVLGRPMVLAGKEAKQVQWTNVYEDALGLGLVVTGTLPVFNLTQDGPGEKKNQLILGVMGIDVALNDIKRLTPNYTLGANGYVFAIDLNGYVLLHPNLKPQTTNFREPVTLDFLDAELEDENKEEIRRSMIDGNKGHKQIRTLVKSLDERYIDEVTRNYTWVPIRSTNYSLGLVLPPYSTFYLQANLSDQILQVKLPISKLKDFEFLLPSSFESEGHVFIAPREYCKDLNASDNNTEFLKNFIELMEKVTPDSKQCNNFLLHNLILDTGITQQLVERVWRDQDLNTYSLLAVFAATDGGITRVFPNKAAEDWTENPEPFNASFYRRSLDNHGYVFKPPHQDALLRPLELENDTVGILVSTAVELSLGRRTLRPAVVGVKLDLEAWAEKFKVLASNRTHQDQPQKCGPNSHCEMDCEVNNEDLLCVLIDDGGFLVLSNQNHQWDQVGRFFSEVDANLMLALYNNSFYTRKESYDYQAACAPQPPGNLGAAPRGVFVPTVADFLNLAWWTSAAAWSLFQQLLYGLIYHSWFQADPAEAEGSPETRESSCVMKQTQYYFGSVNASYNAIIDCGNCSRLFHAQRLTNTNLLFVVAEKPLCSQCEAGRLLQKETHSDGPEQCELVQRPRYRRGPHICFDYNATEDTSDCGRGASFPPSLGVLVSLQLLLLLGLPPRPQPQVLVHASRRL
molecule,measurement,setting,value
NCC1(CC(=O)O)CCCCC1 [Gabapentin],binding to α2δ-2,[1],bind
O=C(CC(c1ccccc1)c1ccccc1)N1CCN(C(c2ccccc2)c2ccccc2)CC1 [NMED 160 (HCl)],inhibition of Ca2+ channel current (average current density),[2],inhibition
"chicken α2δ subunit: α2δ-1 calcium channel subunit of White Leghorn chicken, SEQ ID NO:2, 1,087 amino acids (protein, listed as Gallus domesticus) MAAGWLLVFSLTLFQSLVMNHSSEGPFPSPTTIKSWVDKMQEDLITLARTASGVEQLAAIYLKNKDLYTVEANNPRQLVEIAARDIEKLLSNRSKALVRLAKEAEKYQASHQWRDEFGNNDIIYYNAKDDQNDPEKNDTESGSQRIRPVFEEDPVFRRQTSYQHAAVHIPTDIYEGSTIVLNELNWTAALDDVFKRNREEDPTLLWQVFGSATGLARYYPASPWVDNSRTPNKIDLYDVRRRPWYIQGAASPKDMLILVDASGSVSGLTLKLIRTSVIEMLETLSDDDFVNVVSFNNNAQNVSCFNHLVQANVRNKKKLKEAVDKISAKGITDYKKGFSYAFEQLLNHSVSRANCNKIIMLFTDGGEERAQEIFHKYNEDKKVRVFTFSVGQHNYDKGPIQWMACENKGYYYEIPSIGAIRINTQEYLDVLGRPMVLAGEKAKQVQWTNVYLDALELGLVITGTLPVFNLTKEQNGKINQLILGVMGVDVSLEDIKKLTPRFTLCPNGYYFAIDPNGYVLLHPNLQPKNPKSQEPVTLDFLDAELENDIKVEIRKKMIDGESGEKTFETLVKSQDERYIDKGNRTYTWTAVNGTDYSLALVLPSYSFYYIKAKIEEPITQARLEIKKDSETLKIDHFDEAGYTFIAPREYCTDVKKSENNTEFLLNFNEFIDRNTPSSPSCNTDMVIRVLLDAGFTNELAQNYWSKLYLDGVVAQFVVTDGGITRVFPKRAGEDWLENAETYEVSFYKRSLDNDNYIFTAPYYNKSGANSYESGIMVSKAVEITINGKLLKPAVVGIKIDAMKWMENFTTTTIKSLCNSEICGCEKNSMHVDCVILDDGGFLLMSNRDEYTHQIGRFFGEIDPGLMRNLINMSLYAFNKSYDYQSVCDPEEEPKQGAGLRSAYVPTIADILQLGWWASAAAWSILQQLFLSLTFPRFLEAADMEDDDFSTALPKTSCITEQTQYFFENDDKSFIGIVDCINCSRLYHAEKISNTNLVFIISDSQLLCRSCDPKPLMQAEKPDEGPNPCEMVKQPRYRKGPDVCFDEAKQEDSADCGGASGLSPSLWSMVGIQLVLLWLLSGSRHYQL",mean current density when coexpressed with chicken α2δ subunit,[3],−74.5±14.0 pA/pF
